Experimental data: publication PMC5314947 (Cancer prevention research (Philadelphia, Pa.), 2009)
“And” between values parts separate entries of the source, which are not always exact repeats. Equal entries are not always repeated.

Tests used:
[1] = rhesus monkey, in vivo; cited from earlier work
[2] = rat, in vivo; cited from earlier work
[3] = human, in vivo, po
[4] = human, in vivo, po; remark: listed apart in the source

## COc1cc2c(c3oc(=O)c4c(c13)CCC4=O)[C@@H]1C=CO[C@@H]1O2 [AFB1, aflatoxin B1]
[1]
  dose eliminated in urine as unbound within the first 24 hours: ~ 30%
  dose remaining in the liver: 13.6%
  dose remaining in the plasma: 5.8%
[2]
  in situ absorption rate constant: 5.84 ± 0.05 h⁻¹
[3]
  AUC_Extrap of AFB1 equivalents in plasma: 50.9 ± 8%
  Tmax of AFB1 equivalents in plasma: 1.0 h and ~ 1 h
  ka (absorption rate constant) of AFB1 equivalents in plasma: 5.05 ± 1.10 h⁻¹
  t1/2α (harmonic mean) of AFB1 equivalents in plasma: 2.86 h
  Á (disposition rate constant) of AFB1 equivalents in plasma: 0.24 ± 0.06 h⁻¹
  β (disposition rate constant) of AFB1 equivalents in plasma: 0.01 ± 0.003 h⁻¹
[4]
  AFB1 dose excreted in urine in the first 72 hours: 29.0 ± 2.31% and 34.4 ± 5.60% and 33.3 ± 2.79%
